{
  "source": "paper PMC5218480",
  "about": "(PLoS ONE, 2017)",
  "test_system": "MV-4-11 cells",
  "test": "Gene expression microarray analysis (Affymetrix PrimeView) and GSEA",
  "assay_type": "cell-based, human",
  "set-up": "RFU PODN (11730768_x_at) / Fold change /veh PODN (11730768_x_at) / RFU LINC00158 (11744669_a_at) / Fold change /veh LINC00158 (11744669_a_at) / RFU DUSP10 (11751237_a_at) / Fold change /veh DUSP10 (11751237_a_at) / RFU ID3 (11757404_x_at) / Fold change /veh ID3 (11757404_x_at) / RFU PLEKHG5 (11737974_s_at) / Fold change /veh PLEKHG5 (11737974_s_at) / RFU LRRC4B (11730491_at) / Fold change /veh LRRC4B (11730491_at) / RFU GIMAP4 (11747438_a_at) / Fold change /veh GIMAP4 (11747438_a_at) / RFU KRT8 (11758183_x_at) / Fold change /veh KRT8 (11758183_x_at) / RFU CNN1 (11734310_a_at) / Fold change /veh CNN1 (11734310_a_at) / RFU VPS37D (11726825_at) / Fold change /veh VPS37D (11726825_at) / RFU C10orf10 (11716522_x_at) / Fold change /veh C10orf10 (11716522_x_at) / RFU KIR2DL2 /// KIR2DL4 /// KIR2DL5A /// KIR2DL5B /// KIR2DS1 /// KIR2DS2 /// KIR2DS3 /// KIR2DS4 /// KIR3DL3 /// KIR3DL3 /// KIR3DS1 (11738374_at) / Fold change /veh KIR2DL2 /// KIR2DL4 /// KIR2DL5A /// KIR2DL5B /// KIR2DS1 /// KIR2DS2 /// KIR2DS3 /// KIR2DS4 /// KIR3DL3 /// KIR3DL3 /// KIR3DS1 (11738374_at) / RFU C1QL1 (11718748_at) / Fold change /veh C1QL1 (11718748_at) / RFU TMPRSS4 (11747572_a_at) / Fold change /veh TMPRSS4 (11747572_a_at) / RFU HAMP (11756126_x_at) / Fold change /veh HAMP (11756126_x_at) / RFU RNFT2 (11725882_a_at) / Fold change /veh RNFT2 (11725882_a_at) / RFU NR4A2 (11747474_a_at) / Fold change /veh NR4A2 (11747474_a_at) / RFU ABCC12 (11746883_a_at) / Fold change /veh ABCC12 (11746883_a_at) / RFU TMEM136 (11760407_x_at) / Fold change /veh TMEM136 (11760407_x_at) / RFU CLDN22 /// WWC2 (11732394_at) / Fold change /veh CLDN22 /// WWC2 (11732394_at) / RFU HLA-DPB1 (11760878_x_at) / Fold change /veh HLA-DPB1 (11760878_x_at) / RFU SPINT1 (11716480_a_at) / Fold change /veh SPINT1 (11716480_a_at) / RFU GAP43 (11754022_s_at) / Fold change /veh GAP43 (11754022_s_at) / RFU A4GNT (11735810_at) / Fold change /veh A4GNT (11735810_at) / RFU PRB3 (11715151_x_at) / Fold change /veh PRB3 (11715151_x_at) / RFU TUBB4B (11761932_at) / Fold change /veh TUBB4B (11761932_at) / RFU CAPN14 (11732068_a_at) / Fold change /veh CAPN14 (11732068_a_at) / RFU TMCC2 (11721928_a_at) / Fold change /veh TMCC2 (11721928_a_at) / RFU IRGQ (11745062_a_at) / Fold change /veh IRGQ (11745062_a_at) / RFU FAM174B (11720279_a_at) / Fold change /veh FAM174B (11720279_a_at) / RFU TMPRSS4 (11748680_a_at) / Fold change /veh TMPRSS4 (11748680_a_at) / RFU FAM212B (11763350_a_at) / Fold change /veh FAM212B (11763350_a_at) / RFU PLEKHG5 (11743358_a_at) / Fold change /veh PLEKHG5 (11743358_a_at) / RFU ZSCAN30 (11745921_a_at) / Fold change /veh ZSCAN30 (11745921_a_at) / RFU CMKLR1 (11741424_a_at) / Fold change /veh CMKLR1 (11741424_a_at) / RFU LOC101060620 /// MAPK8IP1 (11723275_at) / Fold change /veh LOC101060620 /// MAPK8IP1 (11723275_at) / RFU SPTSSB (11747773_x_at) / Fold change /veh SPTSSB (11747773_x_at) / RFU PRSS12 (11739890_at) / Fold change /veh PRSS12 (11739890_at) / RFU BIN1 (11741810_x_at) / Fold change /veh BIN1 (11741810_x_at) / RFU WNT11 (11732464_a_at) / Fold change /veh WNT11 (11732464_a_at) / RFU C10orf10 (11716521_a_at) / Fold change /veh C10orf10 (11716521_a_at) / RFU C5orf56 (11738089_at) / Fold change /veh C5orf56 (11738089_at) / RFU CYB561 (11721691_x_at) / Fold change /veh CYB561 (11721691_x_at) / RFU ANKRD19P (11752326_a_at) / Fold change /veh ANKRD19P (11752326_a_at) / RFU OR2T12 /// OR2T33 /// OR2T8 (11738714_s_at) / Fold change /veh OR2T12 /// OR2T33 /// OR2T8 (11738714_s_at) / RFU VCAN (11748164_a_at) / Fold change /veh VCAN (11748164_a_at) / RFU JSRP1 (11732532_at) / Fold change /veh JSRP1 (11732532_at) / RFU KRTAP10-11 (11738290_x_at) / Fold change /veh KRTAP10-11 (11738290_x_at) / RFU MYO3A (11730013_a_at) / Fold change /veh MYO3A (11730013_a_at) / RFU EBF3 (11725865_a_at) / Fold change /veh EBF3 (11725865_a_at) / RFU CAMK2N1 (11719241_x_at) / Fold change /veh CAMK2N1 (11719241_x_at) / RFU C5orf56 (11738088_a_at) / Fold change /veh C5orf56 (11738088_a_at) / RFU OLFML3 (11715873_a_at) / Fold change /veh OLFML3 (11715873_a_at) / RFU LOC100653217 /// NTM (11731650_a_at) / Fold change /veh LOC100653217 /// NTM (11731650_a_at) / RFU MAPK11 (11762145_a_at) / Fold change /veh MAPK11 (11762145_a_at) / RFU FIZ1 (11724087_x_at) / Fold change /veh FIZ1 (11724087_x_at) / RFU OASL (11726364_x_at) / Fold change /veh OASL (11726364_x_at) / RFU SOX15 (11748057_x_at) / Fold change /veh SOX15 (11748057_x_at) / RFU CD79A (11719716_a_at) / Fold change /veh CD79A (11719716_a_at) / RFU HIST1H1D (11736915_at) / Fold change /veh HIST1H1D (11736915_at) / RFU CASKIN2 (11723855_a_at) / Fold change /veh CASKIN2 (11723855_a_at) / RFU LOC730098 (11760151_x_at) / Fold change /veh LOC730098 (11760151_x_at) / RFU OR4N2 (11742367_at) / Fold change /veh OR4N2 (11742367_at) / RFU PRRT2 (11749266_a_at) / Fold change /veh PRRT2 (11749266_a_at) / RFU SNX32 (11753110_a_at) / Fold change /veh SNX32 (11753110_a_at) / RFU CDHR5 (11726645_a_at) / Fold change /veh CDHR5 (11726645_a_at) / RFU RCAN1 (11760418_a_at) / Fold change /veh RCAN1 (11760418_a_at) / RFU FAM167A (11723789_a_at) / Fold change /veh FAM167A (11723789_a_at) / RFU FAM26E (11764081_at) / Fold change /veh FAM26E (11764081_at) / RFU ISYNA1 (11749810_s_at) / Fold change /veh ISYNA1 (11749810_s_at) / RFU ACY1 (11761880_at) / Fold change /veh ACY1 (11761880_at) / RFU 11764098_at / Fold change /veh 11764098_at / RFU SAMD14 (11745864_x_at) / Fold change /veh SAMD14 (11745864_x_at) / RFU NPB (11741838_a_at) / Fold change /veh NPB (11741838_a_at) / RFU TMPRSS6 (11731388_a_at) / Fold change /veh TMPRSS6 (11731388_a_at) / RFU KRTAP10-2 (11738614_at) / Fold change /veh KRTAP10-2 (11738614_at) / RFU ARHGAP8 /// PRR5-ARHGAP8 (11727945_x_at) / Fold change /veh ARHGAP8 /// PRR5-ARHGAP8 (11727945_x_at) / RFU KRTAP5-7 /// NADSYN1 (11734609_at) / Fold change /veh KRTAP5-7 /// NADSYN1 (11734609_at) / RFU RASL12 (11751679_a_at) / Fold change /veh RASL12 (11751679_a_at) / RFU CDKN2B (11736163_a_at) / Fold change /veh CDKN2B (11736163_a_at) / RFU PRF1 (11729649_at) / Fold change /veh PRF1 (11729649_at) / RFU, ZNF638 /// ZNF638-IT1 / Fold change vs veh, ZNF638 /// ZNF638-IT1 / RFU, PANK3 / Fold change vs veh, PANK3 / RFU, SH3YL1 / Fold change vs veh, SH3YL1 / RFU, ZEB2 / Fold change vs veh, ZEB2 / RFU, NRIP1 / Fold change vs veh, NRIP1 / RFU, PTTG1IP / Fold change vs veh, PTTG1IP / RFU, CAPN2 / Fold change vs veh, CAPN2 / RFU, MED14 / Fold change vs veh, MED14 / RFU, SNORA58 / Fold change vs veh, SNORA58 / RFU, C1orf63 / Fold change vs veh, C1orf63 / RFU, LRRFIP1 / Fold change vs veh, LRRFIP1 / RFU, NDUFAF7 / Fold change vs veh, NDUFAF7 / RFU, SLC12A2 / Fold change vs veh, SLC12A2 / RFU, IBTK / Fold change vs veh, IBTK / RFU, ESF1 / Fold change vs veh, ESF1 / Fold change vs veh, TMEM50B / RFU, TAOK1 / Fold change vs veh, TAOK1 / RFU, ACBD3 / Fold change vs veh, ACBD3 / RFU, TMA16 / Fold change vs veh, TMA16 / RFU, RWDD3 / Fold change vs veh, RWDD3 / RFU, BCAT1 / Fold change vs veh, BCAT1 / RFU, EDEM3 / Fold change vs veh, EDEM3 / RFU, TMEM33 / Fold change vs veh, TMEM33 / RFU, WDR75 / Fold change vs veh, WDR75 / RFU, AHCTF1 / Fold change vs veh, AHCTF1 / RFU, TFRC / Fold change vs veh, TFRC / RFU, ZDHHC17 / Fold change vs veh, ZDHHC17 / RFU, NOM1 / Fold change vs veh, NOM1 / RFU, ARL8B / Fold change vs veh, ARL8B / RFU, ZBTB11 / Fold change vs veh, ZBTB11 / RFU, TAMM41 / Fold change vs veh, TAMM41 / RFU, KIAA1704 /// LOC100996395 / Fold change vs veh, KIAA1704 /// LOC100996395 / RFU, ING1 / Fold change vs veh, ING1 / RFU, TRMT61B / Fold change vs veh, TRMT61B / RFU, FUBP3 / Fold change vs veh, FUBP3 / RFU, TP53 / Fold change vs veh, TP53 / RFU, TNKS2 / Fold change vs veh, TNKS2 / RFU, ZFP14 / Fold change vs veh, ZFP14 / RFU, ACTR2 / Fold change vs veh, ACTR2 / RFU, PPP3R1 / Fold change vs veh, PPP3R1 / RFU, PIK3R1 / Fold change vs veh, PIK3R1 / RFU, HNRNPA1 / Fold change vs veh, HNRNPA1 / RFU, RNF170 / Fold change vs veh, RNF170 / RFU, ZNF28 / Fold change vs veh, ZNF28 / RFU, RNGTT / Fold change vs veh, RNGTT / RFU, OGT / Fold change vs veh, OGT / RFU, BRD1 / Fold change vs veh, BRD1 / RFU, MARS / Fold change vs veh, MARS / RFU, ZNF655 / Fold change vs veh, ZNF655 / RFU, FAHD1 / Fold change vs veh, FAHD1 / RFU, BDP1 / Fold change vs veh, BDP1 / RFU, LRRCC1 / Fold change vs veh, LRRCC1 / RFU, ARID1A / Fold change vs veh, ARID1A / RFU, ZNF146 / Fold change vs veh, ZNF146 / RFU, ZNF330 / Fold change vs veh, ZNF330 / RFU, GPN3 / Fold change vs veh, GPN3 / RFU, C9orf123 / Fold change vs veh, C9orf123 / RFU, N4BP2L2 / Fold change vs veh, N4BP2L2 / RFU, ARFIP1 / Fold change vs veh, ARFIP1 / RFU, FAM179B / Fold change vs veh, FAM179B / RFU, BCL10 / Fold change vs veh, BCL10 / RFU, UHRF1BP1L / Fold change vs veh, UHRF1BP1L / RFU, BET1 / Fold change vs veh, BET1 / RFU, CNOT2 / Fold change vs veh, CNOT2 / RFU, ZNF268 / Fold change vs veh, ZNF268 / Fold change vs veh, ZNF507 / RFU, DGCR2 / Fold change vs veh, DGCR2 / RFU, WDSUB1 / Fold change vs veh, WDSUB1 / Fold change vs veh, HSP90B1 /// MIR3652 / RFU, ADSS / Fold change vs veh, ADSS / RFU, GK / Fold change vs veh, GK / RFU, ZNF148 / Fold change vs veh, ZNF148 / RFU, TAF9 / Fold change vs veh, TAF9 / RFU, SLC1A5 / Fold change vs veh, SLC1A5 / RFU, SLMO2 / Fold change vs veh, SLMO2 / RFU, ABCC4 / Fold change vs veh, ABCC4 / RFU, LOC101060439 /// RAP1B / Fold change vs veh, LOC101060439 /// RAP1B / RFU, RFX7 / Fold change vs veh, RFX7 / RFU, GTPBP10 / Fold change vs veh, GTPBP10 / RFU, CNEP1R1 / Fold change vs veh, CNEP1R1 / RFU, BIVM-ERCC5 /// ERCC5 / Fold change vs veh, BIVM-ERCC5 /// ERCC5 / RFU, ILF3 / Fold change vs veh, ILF3 / RFU 11762660_at / Fold change /veh 11762660_at / RFU VCAN (11757783_s_at) / Fold change /veh VCAN (11757783_s_at) / RFU DDX43 (11728927_at) / Fold change /veh DDX43 (11728927_at) / RFU KRT8 (11758188_x_at) / Fold change /veh KRT8 (11758188_x_at) / RFU NKD1 (11759106_at) / Fold change /veh NKD1 (11759106_at) / RFU SRD5A1 (11742802_a_at) / Fold change /veh SRD5A1 (11742802_a_at) / RFU TPSAB1 /// TPSB2 (11721975_s_at) / Fold change /veh TPSAB1 /// TPSB2 (11721975_s_at) / RFU GSTM3 (11746129_a_at) / Fold change /veh GSTM3 (11746129_a_at) / RFU IL23R (11737362_x_at) / Fold change /veh IL23R (11737362_x_at) / RFU TMEM51 (11727254_a_at) / Fold change /veh TMEM51 (11727254_a_at) / RFU PIWIL2 (11732686_x_at) / Fold change /veh PIWIL2 (11732686_x_at) / RFU ORM1 (11744905_x_at) / Fold change /veh ORM1 (11744905_x_at) / RFU CCDC152 (11743942_at) / Fold change /veh CCDC152 (11743942_at) / RFU ECM1 (11717891_a_at) / Fold change /veh ECM1 (11717891_a_at) / RFU IL23R (11748794_a_at) / Fold change /veh IL23R (11748794_a_at) / RFU TNFAIP8L3 (11732012_x_at) / Fold change /veh TNFAIP8L3 (11732012_x_at) / RFU MBOAT4 (11741988_at) / Fold change /veh MBOAT4 (11741988_at) / RFU 11764193_at / Fold change /veh 11764193_at / RFU TMEM53 (11763286_at) / Fold change /veh TMEM53 (11763286_at) / RFU MAGEB2 (11727129_at) / Fold change /veh MAGEB2 (11727129_at) / RFU TMEM200A (11744735_a_at) / Fold change /veh TMEM200A (11744735_a_at) / RFU CCDC152 (11751479_a_at) / Fold change /veh CCDC152 (11751479_a_at) / RFU FAM211A (11726209_a_at) / Fold change /veh FAM211A (11726209_a_at) / RFU RGS16 (11746705_a_at) / Fold change /veh RGS16 (11746705_a_at) / RFU VCAN (11755009_s_at) / Fold change /veh VCAN (11755009_s_at) / RFU RHOB (11743442_s_at) / Fold change /veh RHOB (11743442_s_at) / RFU RGS16 (11720943_a_at) / Fold change /veh RGS16 (11720943_a_at) / RFU RGS16 (11720944_at) / Fold change /veh RGS16 (11720944_at) / RFU, VPS4B / Fold change vs veh, VPS4B / RFU, CREB1 / Fold change vs veh, CREB1 / RFU, DNAJC13 / Fold change vs veh, DNAJC13 / RFU, GNAQ / Fold change vs veh, GNAQ / RFU, CDK5R1 / Fold change vs veh, CDK5R1 / RFU, ZRANB3 / Fold change vs veh, ZRANB3 / RFU, CUL4A / Fold change vs veh, CUL4A / RFU, CCNY / Fold change vs veh, CCNY / RFU, UFL1 / Fold change vs veh, UFL1 / RFU, COG3 / Fold change vs veh, COG3 / RFU, DIAPH2 / Fold change vs veh, DIAPH2 / RFU, SKA2 / Fold change vs veh, SKA2 / RFU, AFF3 / Fold change vs veh, AFF3 / RFU, LMF1 / Fold change vs veh, LMF1 / RFU, IPO11 / Fold change vs veh, IPO11 / RFU, DFFB / Fold change vs veh, DFFB / RFU, FOXP1 / Fold change vs veh, FOXP1 / RFU, CARD8 / Fold change vs veh, CARD8 / RFU, STRN3 / Fold change vs veh, STRN3 / RFU, ADK / Fold change vs veh, ADK / RFU, RASSF2 / Fold change vs veh, RASSF2 / RFU, WIPF1 / Fold change vs veh, WIPF1 / RFU, LARP1B / Fold change vs veh, LARP1B / RFU, RASA1 / Fold change vs veh, RASA1 / RFU, RB1 / Fold change vs veh, RB1 / RFU, PPFIA1 / Fold change vs veh, PPFIA1 / RFU, MAT2A / Fold change vs veh, MAT2A / RFU, CCT5 / Fold change vs veh, CCT5 / RFU, WDR92 / Fold change vs veh, WDR92 / RFU, CUX1 / Fold change vs veh, CUX1 / RFU, TTC7A / Fold change vs veh, TTC7A / RFU, TMEM135 / Fold change vs veh, TMEM135 / RFU, DEPTOR / Fold change vs veh, DEPTOR / RFU, CPM / Fold change vs veh, CPM / RFU, DNAJB6 / Fold change vs veh, DNAJB6 / RFU, CACNA2D3 / Fold change vs veh, CACNA2D3 / RFU, DTX4 / Fold change vs veh, DTX4 / RFU, TFCP2 / Fold change vs veh, TFCP2 / RFU, GMCL1 /// GMCL1P1 / Fold change vs veh, GMCL1 /// GMCL1P1 / RFU, AEBP2 / Fold change vs veh, AEBP2 / RFU, SNHG1 /// SNORD22 /// SNORD25 /// SNORD26 /// SNORD27 /// SNORD28 /// SNORD29 /// SNORD31 / Fold change vs veh, SNHG1 /// SNORD22 /// SNORD25 /// SNORD26 /// SNORD27 /// SNORD28 /// SNORD29 /// SNORD31 / Fold change (Aza/veh), C12orf56 (ProbeSet 11735607_a_at) / Fold change (ACY-1035/veh), C12orf56 (ProbeSet 11735607_a_at) / Fold change (Aza/veh), FGFR1OP (ProbeSet 11751329_s_at) / Fold change (ACY-1035/veh), FGFR1OP (ProbeSet 11751329_s_at) / Fold change (Aza/veh), VPS36 (ProbeSet 11739960_a_at) / Fold change (ACY-1035/veh), VPS36 (ProbeSet 11739960_a_at) / RFU SYPL1 (11715823_x_at) / Fold change /veh SYPL1 (11715823_x_at) / RFU IGFBP7 (11715501_s_at) / Fold change /veh IGFBP7 (11715501_s_at) / RFU REEP3 (11722064_at) / Fold change /veh REEP3 (11722064_at) / RFU IGLL1 (11728026_x_at) / Fold change /veh IGLL1 (11728026_x_at): dose or concentration left out as unconfirmed",
  "conditions": "ProbeSet 11748335_a_at; LIST B",
  "data": [
    {"smiles": "Nc1ccc(-c2cccs2)cc1NC(=O)c1ccc2c(c1)cc(C1CC1)n2CCN1CCOCC1", "note": "[ACY-1035]", "values": [
      {"measurement": "Fold change vs veh, SLMO2", "value": 0.88}
    ]}
  ]
}
